Assay results taken from patent publication US20210382068A1, “HLA SINGLE ALLELE LINES” (priority 2018, published 2021).

Legend:
[1] = test system: advanced hormone refractory prostate cancer patients; conditions: cited from earlier work
[2] = more than 25 clinical trials; cited from earlier work
[3] = test system: ovarian carcinoma patients; conditions: cited from earlier work
healthy human volunteers = conditions: 8 subjects with one single s.c. administration versus 4 subjects receiving placebo; cited from earlier work
[4] = test system: patient tumor cell lines (MEL, GBM, ccRCC); assay: IFNγ stimulation of patient tumor cell lines, HLA-bound peptides by IP/MS; assay type: cell-based, human; conditions: IFNγ-matched samples, 2000 Unit/ml IFNg for 3 days

Molecule: C[C@]12CC[C@@H]3c4ccc(OC(=O)N(CCCl)CCCl)cc4CC[C@H]3[C@@H]1CC[C@@H]2O [estramustine]
- patients with >50% decrease in serum prostate specific antigen (PSA) [1]: 54%

Molecule: Polyinosinic-Polycytidylic Acid-poly-L-lysine Carboxymethylcellulose [poly-ICLC]
- toxicity profile [2]: relatively benign toxicity profile
- generation of NY-ESO-1-specific CD4+ and CD8+ T-cell and antibody responses ([3]; 1.4 mg poly-ICLC and Montanide added, compared to OLP alone or OLP and Montanide): markedly enhanced
- patients showing induction of CD4+ and CD8+ T cell, as well as antibody responses to the peptide ([3]; poly-ICLC in combination with NY-ESO-1 peptide vaccine, in addition to Montanide, phase 1): > 90%
- differential expression of genes versus placebo (healthy human volunteers): up to 212 genes

B1: IFNγ: interferon gamma (Peprotech) used to stimulate cultured tumor cells (protein, UniProt P01579 24-161, looked up)
Interferon gamma: QDPYVKEAENLKKYFNAGHSDVADNGTLFLGILKNWKEESDRKIMQSQIVSFYFKLFKNFKDDQSIQKSVETIKEDMNVKFFNSNKKKRDDFEKLTNYSVTDLNVQRKAIHELIQVMAELSPAAKTGKRKRSQMLFRG
- increase in peptides derived from IFNγ-response genes post stimulation [4]: 2.4-5.6%
